The text below walks through data of patent publication US20240327393A1 (SIRONAX LTD., priority 2021, published 2024).

Broadly, the EC50 is the concentration giving half of the maximal effect.

For one assay, the system named is HT-1080 (ATCC, CCL-121) cells. Nature of the assay: HT-1080 cell viability assay with ferroptosis inducer RSL3 (Cell Titer-Glo). The class given is cell-based. The settings on record: HT-1080 cells treated with RSL3; 3-fold, 10-point dilution, 1.1 μM highest concentration; Table 3; read-out: EC50 (nM), ferroptosis inhibitory activity. The procedure, abridged:
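HT-1080 cells (6000 per well) were cultured overnight at 37 °C, then co-treated with RSL3 and compound in a 3-fold, 10-point series topping at 1.1 μM. Viability was read by CellTiter-Glo luminescence and normalized to untreated controls. EC50 came from a sigmoidal non-linear regression fit.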
In general terms: Cellular ATP, detected with luciferase, serves as a proxy for viable cell number.
`Cc1cc(N2CCC(C(F)(F)F)C2)ccc1Nc1ccc2c(c1)OCC(=O)N2` (stereo not drawn) [Compound 502, 7-((2-methyl-4-(3-(trifluoromethyl)pyrrolidin-1-yl)phenyl)amino)-2H-benzo[b][1,4]oxazin-3(4H)-one]: the EC50 was in the range of 0.1 to 100 nM.

On to `Cc1cc(N2CCC(C(F)(F)F)CC2)ccc1Nc1ccc2c(c1)CNC2` [Compound 544, N-(2-methyl-4-(4-(trifluoromethyl)piperidin-1-yl)phenyl)isoindolin-5-amine], for which the concentration giving a half-maximal response (EC50) lay within 0.1 to 100 nM.

The same assay, now with this note: Homo sapiens; HT-1080 cells treated with RSL3; 3-fold, 10-point dilution, 1.1 μM highest concentration; Table 2; read-out: EC50 (nM), ferroptosis inhibitory activity.
Regarding `Cn1c(=O)n(C)c2cc(Nc3ccc(N4CCC(CF)CC4)cc3)ccc21` [Compound 385, 5-((4-(4-(fluoromethyl)piperidin-1-yl)phenyl)amino)-1,3-dimethyl-1,3-dihydro-2H-benzo[d]imidazol-2-one], the EC50 fell in the range of 0.1 to 100 nM.

As for `Cc1cc(Nc2ccc3c(c2)OCC(=O)N3)cnc1N1CCC(C(F)(F)F)CC1` [Compound 150, 7-((5-methyl-6-(4-(trifluoromethyl)piperidin-1-yl)pyridin-3-yl)amino)-2H-benzo[b][1,4]oxazin-3(4H)-one], the EC50 fell in the range of 0.1 to 100 nM. The same measure, in the same setting: as for `NC(=O)NCCn1ncc2cc(Nc3ccc(N4CCC(C(F)(F)F)CC4)cc3)ccc21` [Compound 421, 1-(2-(5-((4-(4-(trifluoromethyl)piperidin-1-yl)phenyl)amino)-1H-indazol-1-yl)ethyl)urea], the figure is 0.1 to 100 nM. The same measure, in the same setting: then `Cn1ccc2ccc(Nc3ccc(N4CCC(C(F)(F)F)CC4)cc3)cc21` [Compound 348, 1-methyl-N-(4-(4-(trifluoromethyl)piperidin-1-yl)phenyl)-1H-indol-6-amine], with 0.1 to 100 nM. Take `CNCCN1C(=O)COc2cc(Nc3ccc(N4CC(C)OC(C)C4)cc3)ccc21` (stereo not drawn) [Compound 53, 7-((4-(2,6-dimethylmorpholino)phenyl)amino)-4-(2-(methylamino)ethyl)-2H-benzo[b][1,4]oxazin-3(4H)-one]: the EC50 was in the range of 0.1 to 100 nM. As to `CC1CCN(c2ccc(Nc3ccc4c(c3)C(=O)N(C)C4)cc2)CC1` [Compound 170, 2-methyl-6-((4-(4-methylpiperidin-1-yl)phenyl)amino)isoindolin-1-one], the EC50 is 0.1 to 100 nM. The same measure, in the same setting: then `Cc1cc(N2CC(C)OC(C)C2)ccc1Nc1ccc2c(c1)CNC2` (stereo not drawn) [Compound 440, N-(4-(2,6-dimethylmorpholino)-2-methylphenyl)isoindolin-5-amine], with 0.1 to 100 nM; and `CN1Cc2cc(Nc3ccc(N4C[C@H]5CC[C@@H]4C5)cc3)ccc2C1=O` [Compound 245, 5-((4-((1R,4S)-2-azabicyclo[2.2.1]heptan-2-yl)phenyl)amino)-2-methylisoindolin-1-one], with 0.1 to 100 nM. Same read-out and setting: then `CCn1c(=O)cnc2cc(Nc3ccc(N4CCC(C(F)(F)F)CC4)cc3)ccc21` [Compound 116, 1-ethyl-6-((4-(4-(trifluoromethyl)piperidin-1-yl)phenyl)amino) quinoxalin-2(1H)-one], with 0.1 to 100 nM; and `Cn1c(=O)n(C)c2cc(Nc3ccc(N4CCC(O)(C(F)(F)F)CC4)cc3)ccc21` [Compound 332, 5-((4-(4-hydroxy-4-(trifluoromethyl)piperidin-1-yl)phenyl)amino)-1,3-dimethyl-1,3-dihydro-2H-benzo[d]imidazol-2-one], with 0.1 to 100 nM; and `Cc1cc(Nc2cc(F)c3c(c2)OCC(=O)N3C)ccc1N1CC(C)OC(C)C1` (stereo not drawn) [Compound 132, 7-((4-(2,6-dimethylmorpholino)-3-methylphenyl)amino)-5-fluoro-4-methyl-2H-benzo[b][1,4]oxazin-3(4H)-one], with 0.1 to 100 nM. Regarding `Cn1c(=O)oc2ccc(Nc3ccc(N4CCCCC4)cc3)cc21` [Compound 389, 3-methyl-5-((4-(piperidin-1-yl)phenyl)amino)benzo[d]oxazol-2(3H)-one], the EC50 lay in the range of 0.1 to 100 nM. `CC1CN(c2ccc(Nc3ccc4nn(C)cc4c3)cc2)CC(C)O1` (stereo not drawn) [Compound 423, N-(4-(2,6-dimethylmorpholino)phenyl)-2-methyl-2H-indazol-5-amine]: the EC50 was in the range of 0.1 to 100 nM.

In the case of `Cc1nc(N2CCC(C(F)(F)F)CC2)ccc1Nc1ccc2c(c1)OCC(=O)N2C` [Compound 26, 4-methyl-7-((2-methyl-6-(4-(trifluoromethyl)piperidin-1-yl)pyridin-3-yl)amino)-2H-benzo[b][1,4]oxazin-3(4H)-one], the EC50 was 0.1 to 100 nM.

For `Cc1cc(N2CCC(C)CC2)c(F)cc1Nc1ccc2c(c1)n(C)c(=O)n2C` [Compound 264, 5-((5-fluoro-2-methyl-4-(4-methylpiperidin-1-yl)phenyl)amino)-1,3-dimethyl-1,3-dihydro-2H-benzo[d]imidazol-2-one], the EC50 lay in the range of 0.1 to 100 nM. Still for that read-out and setting: then `Cc1cc(N2CC(C)OC(C)C2)ccc1Nc1ccc2c(cnn2C)c1` (stereo not drawn) [Compound 437, N-(4-(2,6-dimethylmorpholino)-2-methylphenyl)-1-methyl-1H-indazol-5-amine], with 0.1 to 100 nM.

On to `COc1ccc(C)cc1Nc1ccc2c(c1)CN(C)C2=O` [Compound 231, 5-((2-methoxy-5-methylphenyl)amino)-2-methylisoindolin-1-one], for which the EC50 is 0.1 to 100 nM.

For the molecule `CC(=O)N1Cc2ccc(Nc3ccc(N4CCC(C(F)(F)F)CC4)cc3)cc2C1` [Compound 186, 1-(5-((4-(4-(trifluoromethyl)piperidin-1-yl)phenyl)amino)isoindolin-2-yl) ethan-1-one], the EC50 was in the range of 0.1 to 100 nM. With `CN1CCc2cc(Nc3ccc4c(c3)n(C)c(=O)n4C)ccc21` [Compound 289, 1,3-dimethyl-5-((1-methylindolin-5-yl)amino)-1,3-dihydro-2H-benzo[d]imidazol-2-one], the EC50 is 0.1 to 100 nM. The same measure, in the same setting: as for `CN1Cc2cc(Nc3ccc4c(c3)OCCO4)ccc2C1=O` [Compound 229, 5-((2,3-dihydrobenzo[b][1,4]dioxin-6-yl)amino)-2-methylisoindolin-1-one], the figure is 0.1 to 100 nM; as for `Fc1cc(Nc2ccc3c(c2)CN(CC2CC2)C3)cnc1N1CCCCC1` [Compound 196, 2-(cyclopropylmethyl)-N-(5-fluoro-6-(piperidin-1-yl)pyridin-3-yl) isoindolin-5-amine], 0.1 to 100 nM; as for `CC(C)(C)c1ccc(Nc2ccc3c(c2)OCC(=O)N3CCO)cc1` [Compound 82, 7-((4-(tert-butyl)phenyl)amino)-4-(2-hydroxyethyl)-2H-benzo[b][1,4]oxazin-3(4H)-one], 0.1 to 100 nM. As for `FC(F)(F)C1CCN(c2ccc(Nc3ccc4ncoc4c3)cc2)CC1` [Compound 360, N-(4-(4-(trifluoromethyl)piperidin-1-yl)phenyl)benzo[d]oxazol-6-amine], the EC50 fell in the range of 0.1 to 100 nM.

The assay is the same for the next values; noted with them: Homo sapiens; HT-1080 cells treated with RSL3; 3-fold, 10-point dilution, 1.1 μM highest concentration; Table 3; read-out: EC50 (nM), ferroptosis inhibitory activity.
Turning to `CC[C@@H]1CN(c2ccc(Nc3ccc4c(c3)OCC(=O)N4)c(C)n2)C[C@H](CC)O1` [Compound 499, 7-((6-((2S,6R)-2,6-diethylmorpholino)-2-methylpyridin-3-yl)amino)-2H-benzo[b][1,4]oxazin-3(4H)-one], the EC50 was in the range of 0.1 to 100 nM. The same measure, in the same setting: as for `Cc1cc(Nc2ccc(N3CC(C)OC(C)C3)cc2)cc2c1N(C)C(=O)CO2` (stereo not drawn) [Compound 463, 7-{[4-(2,6-dimethylmorpholin-4-yl)phenyl]amino}-4,5-dimethyl-2H-1,4-benzoxazin-3-one], the figure is 0.1 to 100 nM; as for `Cc1cc(N2CCC(C(C)(C)O)CC2)ccc1Nc1ccc2c(c1)OCC(=O)N2` [Compound 542, 7-((4-(4-(2-hydroxypropan-2-yl)piperidin-1-yl)-2-methylphenyl)amino)-2H-benzo[b][1,4]oxazin-3(4H)-one], 0.1 to 100 nM.

Take `COC1(C(F)(F)F)CCN(c2ccc(Nc3ccc4c(c3)OCCC(=O)N4)c(C)c2)C1` (stereo not drawn) [Compound 647, 8-((4-(3-methoxy-3-(trifluoromethyl)pyrrolidin-1-yl)-2-methylphenyl)amino)-2,3-dihydrobenzo[b][1,4]oxazepin-4(5H)-one]: the EC50 fell in the range of 0.1 to 100 nM.

Consider `Cc1cc(N2CC(OC(F)(F)F)C2)ccc1Nc1ccc2c(c1)OCCC(=O)N2` [Compound 614, 8-((2-methyl-4-(3-(trifluoromethoxy)azetidin-1-yl)phenyl)amino)-2,3-dihydrobenzo[b][1,4]oxazepin-4(5H)-one], for which the EC50 was 0.1 to 100 nM. Still for that read-out and setting: as for `CN1C(=O)COc2cc(Nc3ccc(N4CCC(C(F)(F)F)CC4)cc3Cl)ccc21` [Compound 451, 7-((2-chloro-4-(4-(trifluoromethyl)piperidin-1-yl)phenyl)amino)-4-methyl-2H-benzo[b][1,4]oxazin-3(4H)-one], the figure is 0.1 to 100 nM.

In the case of `Cc1cc(N2CCC(C(F)(F)F)CC2)ccc1Nc1ccc2[nH]ncc2c1` [Compound 497, N-(2-methyl-4-(4-(trifluoromethyl)piperidin-1-yl)phenyl)-1H-indazol-5-amine], the EC50 is 0.1 to 100 nM.

For the molecule `CC[C@@H]1CN(c2ccc(Nc3ccc4c(c3)OCC(=O)N4)c(C)n2)C[C@@H](C)O1` [Compound 471, 7-((6-((2R,6R)-2-ethyl-6-methylmorpholino)-2-methylpyridin-3-yl)amino)-2H-benzo[b][1,4]oxazin-3(4H)-one], the EC50 lay in the range of 0.1 to 100 nM. Take `O=C1COc2cc(Nc3ccc(N4CCCCC4)cc3)ccc2N1` [Compound 517, 7-(4-(piperidin-1-yl)phenylamino)-2H-benzo[b][1,4]oxazin-3(4H)-one]: the EC50 was in the range of 0.1 to 100 nM. The same measure, in the same setting: as for `Cc1cc(N2CCC(C(F)(F)F)CC2)ccc1Nc1ccc2c(c1)OC(CN)C(=O)N2` (stereo not drawn) [Compound 592, 2-(aminomethyl)-7-((2-methyl-4-(4-(trifluoromethyl)piperidin-1-yl)phenyl)amino)-2H-benzo[b][1,4]oxazin-3(4H)-one], the figure is 0.1 to 100 nM. Same read-out and setting: as for `Cc1cc(N2CCCC2)ccc1Nc1ccc2c(c1)OCC(=O)N2` [Compound 563, 7-((2-methyl-4-(pyrrolidin-1-yl)phenyl)amino)-2H-benzo[b][1,4]oxazin-3(4H)-one], the figure is 0.1 to 100 nM.
